In ChEMBL document CHEMBL5154901, “Development of Predictive Classification Models for Whole Cell Antimycobacterial Activity of Benzothiazinones” (J Med Chem, 2022):
In brackets after ≈: the same amount, converted by molar mass.

Tests used:
Mycolicibacterium vaccae = assay: Antimycobacterial activity against Mycobacterium vaccae (JMRC:STI:10670) assessed as reduction in bacterial growth incubated for 42 hrs by serial dilution method; type: functional
[1] = Cytotoxicity against human HeLa cells assessed as reduction in cell viability incubated for 72 hrs by methylene blue staining based colorimetric assay; type: toxicity
[2] = Mycolicibacterium vaccae, JMRC:STI:10670, read-out: MIC

MIC (Mycolicibacterium vaccae; [2]) [µM] | MIC (Mycolicibacterium vaccae) | SMILES | CC50 at 72 h [1] [µM]
6.49 (≈ 3.12 µg/mL) |  | O=C(O)c1ccccc1N1CCN(c2nc(=O)c3cc(C(F)(F)F)cc([N+](=O)[O-])c3s2)CC1 | 
68.1 (≈ 25 µg/mL) |  | O=c1nc(Nc2ccccc2)sc2c([N+](=O)[O-])cc(C(F)(F)F)cc12 | 
0.0253 (≈ 0.0125 µg/mL) |  | O=C(CN1CCN(c2nc(=O)c3cc(C(F)(F)F)cc([N+](=O)[O-])c3s2)CC1)Nc1ccccc1 | > 101
0.0515 (≈ 0.025 µg/mL) |  | O=c1nc(N2CC[C@](O)(c3ccc(F)cc3)[C@@H](O)C2)sc2c([N+](=O)[O-])cc(C(F)(F)F)cc12 | 73.3
0.0687 (≈ 0.031 µg/mL) |  | O=c1nc(N2CCN(Cc3ccncc3)CC2)sc2c([N+](=O)[O-])cc(C(F)(F)F)cc12 | > 111
13.6 (≈ 6.25 µg/mL) |  | O=c1nc(N2Cc3[nH]nc(-c4ccccc4)c3C2)sc2c([N+](=O)[O-])cc(C(F)(F)F)cc12 | 
0.0132 (≈ 0.0062 µg/mL) |  | O=c1nc(N2CC[C@@H](c3ccc(F)cc3)[C@H](O)C2)sc2c([N+](=O)[O-])cc(C(F)(F)F)cc12 | 68.4
7.33 (≈ 3.12 µg/mL) |  | CN(c1ccc(CCO)cc1)c1nc(=O)c2cc(C(F)(F)F)cc([N+](=O)[O-])c2s1 | 
2 (≈ 0.779 µg/mL) |  | O=c1nc(N2CCC(CO)CC2)sc2c([N+](=O)[O-])cc(C(F)(F)F)cc12 | 
1.55 (≈ 0.782 µg/mL) |  | O=C(c1cccc2[nH]ncc12)N1CCN(c2nc(=O)c3cc(C(F)(F)F)cc([N+](=O)[O-])c3s2)CC1 | 
0.0491 (≈ 0.025 µg/mL) |  | O=c1nc(N2CCn3cc(-c4ccc(F)c(F)c4)nc3C2)sc2c([N+](=O)[O-])cc(C(F)(F)F)cc12 | 
0.41 (≈ 0.2 µg/mL) |  | Cn1c(-c2ccccc2)nc2c1CCN(c1nc(=O)c3cc(C(F)(F)F)cc([N+](=O)[O-])c3s1)C2 | 
 | 5.8 10^3nM | CN1CCN(C(=O)CCC(=O)N2CCN(c3nc(=O)c4cc(C(F)(F)F)cc([N+](=O)[O-])c4s3)CC2)CC1 | 
0.0131 (≈ 0.0062 µg/mL) |  | O=c1nc(N2CCn3c(-c4ccccc4)cnc3C2)sc2c([N+](=O)[O-])cc(C(F)(F)F)cc12 | 
0.141 (≈ 0.0802 µg/mL) |  | O=c1nc(N2CCN(CCCC3(c4ccc(F)cc4)OCCO3)CC2)sc2c([N+](=O)[O-])cc(C(F)(F)F)cc12 | 
0.206 (≈ 0.0998 µg/mL) |  | CN1CCC(CCC2CCN(c3nc(=O)c4cc(C(F)(F)F)cc([N+](=O)[O-])c4s3)CC2)CC1 | 
 | 16 10^3nM | O=c1nc(Nc2ccc(CO)cc2)sc2c([N+](=O)[O-])cc(C(F)(F)F)cc12 | 
3.2 (≈ 1.56 µg/mL) |  | CCn1c(-c2ccccc2)nc2c1CN(c1nc(=O)c3cc(C(F)(F)F)cc([N+](=O)[O-])c3s1)C2 | 
3.78 (≈ 1.56 µg/mL) |  | Cc1nnc2n1CCN(c1nc(=O)c3cc(C(F)(F)F)cc([N+](=O)[O-])c3s1)C2 | 
0.0535 (≈ 0.025 µg/mL) |  | O=c1nc(N2CC[C@@](O)(c3ccccc3)[C@H](O)C2)sc2c([N+](=O)[O-])cc(C(F)(F)F)cc12 | 68.5

More lines, now with the values behind:

SMILES | MIC (Mycolicibacterium vaccae; [2]) [µM] | MIC (Mycolicibacterium vaccae) | CC50 at 72 h [1] [µM]
CN(c1ccc(CO)cc1)c1nc(=O)c2cc(C(F)(F)F)cc([N+](=O)[O-])c2s1 | 30.4 (≈ 12.5 µg/mL) |  | 
O=c1nc(Nc2ccc3[nH]ncc3c2)sc2c([N+](=O)[O-])cc(C(F)(F)F)cc12 | 61.4 (≈ 25 µg/mL) |  | 
O=c1nc(N2CCN(CC(F)(F)c3ccc(OC(F)(F)F)cc3)CC2)sc2c([N+](=O)[O-])cc(C(F)(F)F)cc12 | 0.0027 (≈ 0.00158 µg/mL) |  | > 86
O=c1nc(N2CC[C@@H](c3ccc(F)cc3)[C@H](CO)C2)sc2c([N+](=O)[O-])cc(C(F)(F)F)cc12 | 0.0128 (≈ 0.00619 µg/mL) |  | 35.8
N#Cc1cccc(N2CCN(c3nc(=O)c4cc(C(F)(F)F)cc([N+](=O)[O-])c4s3)CC2)c1 | 0.0347 (≈ 0.016 µg/mL) |  | > 108
O=C(CN1CCN(c2nc(=O)c3cc(C(F)(F)F)cc([N+](=O)[O-])c3s2)CC1)Nc1ccccn1 | 0.0506 (≈ 0.025 µg/mL) |  | 44.5
O=c1nc(N2CCC(O)CC2)sc2c([N+](=O)[O-])cc(C(F)(F)F)cc12 |  | 1.1 10^3nM | 
CN1CCN(c2nc(=O)c3cc(C(F)(F)F)cc([N+](=O)[O-])c3s2)CC1 | 0.267 (≈ 0.0999 µg/mL) |  | 
O=C(CN1CCN(c2nc(=O)c3cc(C(F)(F)F)cc([N+](=O)[O-])c3s2)CC1)N1CCOCC1 | 0.205 (≈ 0.0999 µg/mL) |  | 
O=c1nc(N2CCc3[nH]c(-c4ccccc4)nc3C2)sc2c([N+](=O)[O-])cc(C(F)(F)F)cc12 | 52.8 (≈ 25 µg/mL) |  | 
O=c1nc(N2CCn3c(nnc3-c3ccccc3)C2)sc2c([N+](=O)[O-])cc(C(F)(F)F)cc12 | 0.0527 (≈ 0.025 µg/mL) |  | 
O=c1nc(N2CCn3nncc3C2)sc2c([N+](=O)[O-])cc(C(F)(F)F)cc12 | 31.4 (≈ 12.5 µg/mL) |  | 
CN(c1ccc2[nH]ncc2c1)c1nc(=O)c2cc(C(F)(F)F)cc([N+](=O)[O-])c2s1 | 0.949 (≈ 0.4 µg/mL) |  | 
O=c1nc(N2CCn3nc(-c4ccccc4)nc3C2)sc2c([N+](=O)[O-])cc(C(F)(F)F)cc12 | 105 (≈ 49.8 µg/mL) |  | 
O=c1nc(N2CCN(CCc3ccccc3)CC2)sc2c([N+](=O)[O-])cc(C(F)(F)F)cc12 | 0.0172 (≈ 0.00799 µg/mL) |  | > 108
CN1CCC(OC2CCN(c3nc(=O)c4cc(C(F)(F)F)cc([N+](=O)[O-])c4s3)CC2)CC1 |  | 6.6 10^3nM | 
O=c1nc(N2CCc3nc(-c4ccccc4)ncc3C2)sc2c([N+](=O)[O-])cc(C(F)(F)F)cc12 |  | 26 10^3nM | 
